From patent US20250092016A1, “COMPOUNDS AND COMPOSITIONS FOR THE TREATMENT OF CORONAVIRAL RELATED DISEASES” (priority 2021, published 2025)

Molecular target: SARS-CoV-2 main protease (M^pro) (Severe acute respiratory syndrome coronavirus 2, UniProt P0DTD1)
Test: Rapid-Fire MS Biochemical Assay measuring Mpro activity (5 nM Mpro)
Conditions: Table 1B, Mpro inhibition, 5 μM substrate peptide, 120 min, read-out: Rapid-Fire Assay IC50

SMILES	IC50 [µM]
COc1ccc(C#N)cc1N1C[C@@H](C#N)N(c2cncc3ccccc23)C1=O (single isomer, unassigned) [Compound 15b]	> 1
N#C[C@H]1CN(c2ncc(Cl)cn2)C(=O)N1c1cncc2ccccc12 (single isomer, unassigned) [Compound 16a]	< 0.02
N#C[C@@H]1CN(c2ncc(Cl)cn2)C(=O)N1c1cncc2ccccc12 (single isomer, unassigned) [Compound 16b]	0.2 to 1
COc1ccc(C(F)(F)F)cc1N1C[C@H](C#N)N(c2cncc3ccccc23)C1=O (single isomer, unassigned) [Compound 17a]	< 0.02
COc1ccc(C(F)(F)F)cc1N1C[C@@H](C#N)N(c2cncc3ccccc23)C1=O (single isomer, unassigned) [Compound 17b]	> 1
N#Cc1cc(C(F)(F)F)ncc1N1C[C@H](C#N)N(c2cncc3ccccc23)C1=O (single isomer, unassigned) [Compound 18a]	< 0.02
N#Cc1cc(C(F)(F)F)ncc1N1C[C@@H](C#N)N(c2cncc3ccccc23)C1=O (single isomer, unassigned) [Compound 18b]	> 1
COc1cc(C#N)ccc1N1C[C@H](C#N)N(c2cncc3ccccc23)C1=O (single isomer, unassigned) [Compound 19a]	< 0.02
COc1cc(C#N)ccc1N1C[C@@H](C#N)N(c2cncc3ccccc23)C1=O (single isomer, unassigned) [Compound 19b]	> 1
N#Cc1ccc(Cl)cc1N1C[C@H](C#N)N(c2cncc3ccccc23)C1=O (single isomer, unassigned) [Compound 20a]	< 0.02
N#Cc1ccc(Cl)cc1N1C[C@@H](C#N)N(c2cncc3ccccc23)C1=O (single isomer, unassigned) [Compound 20b]	> 1
Cc1ccc(F)cc1N1C[C@H](C#N)N(c2cncc3ccccc23)C1=O (single isomer, unassigned) [Compound 21a]	< 0.02
Cc1ccc(F)cc1N1C[C@@H](C#N)N(c2cncc3ccccc23)C1=O (single isomer, unassigned) [Compound 21b]	> 1
N#C[C@H]1CN(c2cccc(C(F)F)c2)C(=O)N1c1cncc2ccccc12 (single isomer, unassigned) [Compound 22a]	< 0.02
N#C[C@@H]1CN(c2cccc(C(F)F)c2)C(=O)N1c1cncc2ccccc12 (single isomer, unassigned) [Compound 22b]	> 1
COc1cc(N2C[C@H](C#N)N(c3cncc4ccccc34)C2=O)ccn1 (single isomer, unassigned) [Compound 23a]	< 0.02
COc1cc(N2C[C@@H](C#N)N(c3cncc4ccccc34)C2=O)ccn1 (single isomer, unassigned) [Compound 23b]	> 1
Cc1ccc(C(F)(F)F)cc1N1C[C@H](C#N)N(c2cncc3ccccc23)C1=O (single isomer, unassigned) [Compound 24a]	< 0.02
Cc1ccc(C(F)(F)F)cc1N1C[C@@H](C#N)N(c2cncc3ccccc23)C1=O (single isomer, unassigned) [Compound 24b]	> 1
N#C[C@H]1CN([C@@H]2CCN(C(=O)CO)C2)C(=O)N1c1cncc2ccccc12 (single isomer, unassigned) [Compound 25a]	0.2 to 1

SMILES	IC50 [µM]
N#C[C@@H]1CN([C@@H]2CCN(C(=O)CO)C2)C(=O)N1c1cncc2ccccc12 (single isomer, unassigned) [Compound 25b]	> 1
N#C[C@H]1CN([C@@H]2CCN(CCC(F)(F)F)C2)C(=O)N1c1cncc2ccccc12 (single isomer, unassigned) [Compound 26a]	0.2 to 1
N#C[C@@H]1CN([C@@H]2CCN(CCC(F)(F)F)C2)C(=O)N1c1cncc2ccccc12 (single isomer, unassigned) [Compound 26b]	> 1
N#C[C@H]1CN(c2cc(C(F)(F)F)cnn2)C(=O)N1c1cncc2ccccc12 (single isomer, unassigned) [Compound 30a]	< 0.02
N#C[C@@H]1CN(c2cc(C(F)(F)F)cnn2)C(=O)N1c1cncc2ccccc12 (single isomer, unassigned) [Compound 30b]	> 1
COc1cnc(C(F)(F)F)nc1N1C[C@H](C#N)N(c2cncc3ccccc23)C1=O (single isomer, unassigned) [Compound 31a]	0.02 to 0.2
COc1cnc(C(F)(F)F)nc1N1C[C@@H](C#N)N(c2cncc3ccccc23)C1=O (single isomer, unassigned) [Compound 31b]	> 1
N#C[C@H]1CN(c2cnc(C(F)(F)F)cn2)C(=O)N1c1cncc2ccccc12 (single isomer, unassigned) [Compound 32a]	< 0.02
N#C[C@@H]1CN(c2cnc(C(F)(F)F)cn2)C(=O)N1c1cncc2ccccc12 (single isomer, unassigned) [Compound 32b]	> 1
N#C[C@H]1CN(c2cccc(Cl)c2)C(=O)N1c1cncc2ccc(C(=O)O)cc12 (single isomer, unassigned) [Compound 33a]	< 0.02
N#C[C@@H]1CN(c2cccc(Cl)c2)C(=O)N1c1cncc2ccc(C(=O)O)cc12 (single isomer, unassigned) [Compound 33b]	> 1
CS(=O)(=O)c1ccc2cncc(N3C(=O)N(c4cccc(Cl)c4)C[C@@H]3C#N)c2c1 (single isomer, unassigned) [Compound 37a]	< 0.02
CS(=O)(=O)c1ccc2cncc(N3C(=O)N(c4cccc(Cl)c4)C[C@H]3C#N)c2c1 (single isomer, unassigned) [Compound 37b]	> 1
COc1ccc(C(F)(F)F)cc1N1C[C@H](C#N)N(c2cncc3ccc(S(C)(=O)=O)cc23)C1=O (single isomer, unassigned) [Compound 38a]	< 0.02
COc1ccc(C(F)(F)F)cc1N1C[C@@H](C#N)N(c2cncc3ccc(S(C)(=O)=O)cc23)C1=O (single isomer, unassigned) [Compound 38b]	> 1
N#Cc1ccc2cncc(N3C(=O)N(c4cccc(Cl)c4)C[C@@H]3C#N)c2c1 (single isomer, unassigned) [Compound 39a]	< 0.02
N#Cc1ccc2cncc(N3C(=O)N(c4cccc(Cl)c4)C[C@H]3C#N)c2c1 (single isomer, unassigned) [Compound 39b]	> 1
C[C@]1(C#N)CN(c2cccc(Cl)c2)C(=O)N1c1cncc2ccccc12 (single isomer, unassigned) [Compound 40a]	0.2 to 1
C[C@@]1(C#N)CN(c2cccc(Cl)c2)C(=O)N1c1cncc2ccccc12 (single isomer, unassigned) [Compound 40b]	> 1
N#C[C@H]1CN(c2ccc(Cl)cn2)C(=O)N1c1cncc2ccccc12 (single isomer, unassigned) [Compound 41a]	< 0.02

SMILES	IC50 [µM]
N#C[C@@H]1CN(c2ccc(Cl)cn2)C(=O)N1c1cncc2ccccc12 (single isomer, unassigned) [Compound 41b]	0.2 to 1
N#C[C@H]1CN(c2ncc(C(F)(F)F)cn2)C(=O)N1c1cncc2ccccc12 (single isomer, unassigned) [Compound 42a]	< 0.02
N#C[C@@H]1CN(c2ncc(C(F)(F)F)cn2)C(=O)N1c1cncc2ccccc12 (single isomer, unassigned) [Compound 42b]	> 1
C[C@H]1[C@H](C#N)N(c2cncc3ccccc23)C(=O)N1c1cccc(Cl)c1 (single isomer, unassigned) [Compound 43a]	< 0.02
C[C@H]1[C@@H](C#N)N(c2cncc3ccccc23)C(=O)N1c1cccc(Cl)c1 (single isomer, unassigned) [Compound 43b]	0.2 to 1
Cc1cc(N2C[C@H](C#N)N(c3cncc4ccccc34)C2=O)ccn1 (single isomer, unassigned) [Compound 44a]	0.02 to 0.2
Cc1cc(N2C[C@@H](C#N)N(c3cncc4ccccc34)C2=O)ccn1 (single isomer, unassigned) [Compound 44b]	> 1
N#C[C@H]1CN([C@@H]2CCN(CCO)C2)C(=O)N1c1cncc2ccccc12 (single isomer, unassigned) [Compound 46a]	> 1
N#C[C@@H]1CN([C@@H]2CCN(CCO)C2)C(=O)N1c1cncc2ccccc12 (single isomer, unassigned) [Compound 46b]	> 1
COc1ccc(C(F)(F)F)nc1N1C[C@H](C#N)N(c2cncc3ccccc23)C1=O (single isomer, unassigned) [Compound 47a]	0.02 to 0.2
COc1ccc(C(F)(F)F)nc1N1C[C@@H](C#N)N(c2cncc3ccccc23)C1=O (single isomer, unassigned) [Compound 47b]	> 1
CS(=O)(=O)c1cccc(N2C[C@H](C#N)N(c3cncc4ccccc34)C2=O)c1 (single isomer, unassigned) [Compound 48a]	< 0.02
CS(=O)(=O)c1cccc(N2C[C@@H](C#N)N(c3cncc4ccccc34)C2=O)c1 (single isomer, unassigned) [Compound 48b]	> 1
N#C[C@H]1CN(c2nccc(C(F)(F)F)n2)C(=O)N1c1cncc2ccccc12 (single isomer, unassigned) [Compound 49a]	0.02 to 0.2
N#C[C@@H]1CN(c2nccc(C(F)(F)F)n2)C(=O)N1c1cncc2ccccc12 (single isomer, unassigned) [Compound 49b]	> 1
N#Cc1ccc(N2C[C@H](C#N)N(c3cncc4ccccc34)C2=O)cc1 (single isomer, unassigned) [Compound 50a]	< 0.02
N#Cc1ccc(N2C[C@@H](C#N)N(c3cncc4ccccc34)C2=O)cc1 (single isomer, unassigned) [Compound 50b]	> 1
N#C[C@H]1CN(c2cccc(C(F)(F)F)n2)C(=O)N1c1cncc2ccccc12 (single isomer, unassigned) [Compound 51a]	0.02 to 0.2
N#C[C@@H]1CN(c2cccc(C(F)(F)F)n2)C(=O)N1c1cncc2ccccc12 (single isomer, unassigned) [Compound 51b]	> 1
N#Cc1cccc(N2C[C@H](C#N)N(c3cncc4ccccc34)C2=O)c1 (single isomer, unassigned) [Compound 52a]	< 0.02
